In patent US11753407B2, “Compounds for treating spinal muscular atrophy” (PTC Therapeutics, Inc., priority 2012, dated 2023):

Columns and labels:
[1] = test system: SMN2 minigene mRNA (SMN2-A minigene) in HEK293H cells; assay: SMN2 minigene mRNA splicing RT-qPCR assay in cultured cells; format: cell-based, human; conditions: Homo sapiens, HEK293-H; concentration increasing full length SMN2 mRNA 1.5-fold relative to vehicle-treated cells; HEK293H cells with SMN2-A minigene, 24 hours, 7-point concentration data; read-out: EC1.5x for production of full length SMN2 mRNA
How it was run: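 Stable SMN2-A minigene HEK293H; cpd 7-pt 3.16-fold series, 200× in DMSO, 24 h, 37 °C, n=2. Lysates → multiplex RT-qPCR (minigene FL + GAPDH), efficiency-corrected ΔΔCt vs vehicle. EC1.5× = 1.5-fold FL mRNA gain.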

[2] = test system: Smn protein in SMA patient fibroblast cells (GM03813); assay: Smn protein assay in cultured cells (SMN HTRF); format: cell-based, human; conditions: SMA patient fibroblast cells, 48 hours; for EC1.5x for Smn protein expression: 7-point concentration curve, SMN HTRF, concentration producing 1.5 times Smn protein vs DMSO vehicle control; for maximum fold (Fold) increase of Smn protein: 7-point concentration data, fold relative to vehicle control
How it was run: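 Fibroblasts, SMA patient; 5,000 cells/well; 7-pt curve, 3.16-fold serial dilution; 48 h, 37 °C, 5% CO2; RIPA lysis 1 h RT; anti-SMN d2 + kryptate overnight RT; HTRF 665/620 nm; fold vs DMSO; EC1.5×, max fold.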

Row | SMILES | EC (1.5-fold increase) [1] [µM] | EC1.5x for Smn protein expression [2] | maximum fold (Fold) increase of Smn protein [2] | melting point
1 | Cc1nc2ccc(-c3cc(=O)n4cc(C5=CCNCC5)ccc4n3)cc2s1 [Compound 384, 2-(2-methyl-1,3-benzothiazol-6-yl)-7-(1,2,3,6-tetrahydropyridin-4-yl)-4H-pyrido[1,2-a]pyrimidin-4-one] | < 0.1 | **** (an EC1.5x≤0.3 μM is indicated by four stars (****)) | ***** (a fold increase >1.65 is indicated by five stars (*****)) | 124 to 126 °C
2 | COCCN1CCN(c2ccc3nc(-c4cc(F)c5nc(C)cn5c4)cc(=O)n3c2)CC1 [Compound 385, 2-(8-fluoro-2-methylimidazo[1,2-a]pyridin-6-yl)-7-[4-(2-methoxyethyl)piperazin-1-yl]-4H-pyrido[1,2-a]pyrimidin-4-one] | < 0.1 | *** (an EC1.5× between >0.3 μM and ≤1 μM is indicated by three stars (***)) | ***** (a fold increase >1.65 is indicated by five stars (*****)) | 258 to 262 °C
3 | COc1ccc(-c2cc(=O)n3cc(C4=CCN(C5COC5)CC4)cc(C)c3n2)cc1OC [Compound 386, 2-(3,4-dimethoxyphenyl)-9-methyl-7-[1-(oxetan-3-yl)-1,2,3,6-tetrahydropyridin-4-yl]-4H-pyrido[1,2-a]pyrimidin-4-one] | 0.3 to 1 |  | * (A maximum fold increase of ≤1.2 is indicated by one star (*)) | 180 to 195 °C
4 | COc1ccc(-c2cc(=O)n3cc(C4=CCN(C(C)C)CC4)cc(C)c3n2)cc1OC [Compound 387, 2-(3,4-dimethoxyphenyl)-9-methyl-7-[1-(propan-2-yl)-1,2,3,6-tetrahydropyridin-4-yl]-4H-pyrido[1,2-a]pyrimidin-4-one] | 0.3 to 1 |  | ** (a fold increase between >1.2 and ≤1.35 is indicated by two stars (**)) | 153 to 163 °C
5 | COc1ccc(-c2cc(=O)n3cc(C4=CCNCC4)c(C)cc3n2)cc1OC [Compound 389, 2-(3,4-dimethoxyphenyl)-8-methyl-7-(1,2,3,6-tetrahydropyridin-4-yl)-4H-pyrido[1,2-a]pyrimidin-4-one] | 1 to 3 |  | ** (a fold increase between >1.2 and ≤1.35 is indicated by two stars (**)) | 175 °C (dec.)
6 | COc1ccc(-c2cc(=O)n3cc(C4=CCN(C5CC5)CC4)cc(C)c3n2)cc1OC [Compound 390, 7-(1-cyclopropyl-1,2,3,6-tetrahydropyridin-4-yl)-2-(3,4-dimethoxyphenyl)-9-methyl-4H-pyrido[1,2-a]pyrimidin-4-one] | 0.3 to 1 |  | * (A maximum fold increase of ≤1.2 is indicated by one star (*)) | 180 to 189 °C
7 | COc1ccc(-c2cc(=O)n3cc(C4=CCN(C)CC4)c(C)cc3n2)cc1OC [Compound 391, 2-(3,4-dimethoxyphenyl)-8-methyl-7-(1-methyl-1,2,3,6-tetrahydropyridin-4-yl)-4H-pyrido[1,2-a]pyrimidin-4-one] | 1 to 3 |  | * (A maximum fold increase of ≤1.2 is indicated by one star (*)) | 174 to 178 °C
8 | Cc1nc2ccc(-c3cc(=O)n4cc(C5=CCN(C)CC5)ccc4n3)cc2s1 [Compound 392, 2-(2-methyl-1,3-benzothiazol-6-yl)-7-(1-methyl-1,2,3,6-tetrahydropyridin-4-yl)-4H-pyrido[1,2-a]pyrimidin-4-one] | 0.1 to 0.3 |  | *** (a fold increase between >1.35 and ≤1.5 is indicated by three stars (***)) | 170 to 172 °C
9 | Cc1nc2ccc(-c3cc(=O)n4cc(C5=CCN(CCO)CC5)ccc4n3)cc2s1 [Compound 393, 7-[1-(2-hydroxyethyl)-1,2,3,6-tetrahydropyridin-4-yl]-2-(2-methyl-1,3-benzothiazol-6-yl)-4H-pyrido[1,2-a]pyrimidin-4-one] | < 0.1 | *** (an EC1.5× between >0.3 μM and ≤1 μM is indicated by three stars (***)) | *** (a fold increase between >1.35 and ≤1.5 is indicated by three stars (***)) | 178 to 180 °C
10 | Cc1nc2ccc(-c3cc(=O)n4cc(C5=CCN(C(C)C)CC5)ccc4n3)cc2s1 [Compound 394, 2-(2-methyl-1,3-benzothiazol-6-yl)-7-[1-(propan-2-yl)-1,2,3,6-tetrahydropyridin-4-yl]-4H-pyrido[1,2-a]pyrimidin-4-one] | 0.1 to 0.3 |  | ** (a fold increase between >1.2 and ≤1.35 is indicated by two stars (**)) | 168 to 170 °C
11 | Cc1nc2ccc(-c3cc(=O)n4cc(C5=CCN(C6CC6)CC5)ccc4n3)cc2s1 [Compound 395, 7-(1-cyclopropyl-1,2,3,6-tetrahydropyridin-4-yl)-2-(2-methyl-1,3-benzothiazol-6-yl)-4H-pyrido[1,2-a]pyrimidin-4-one] | 0.3 to 1 |  | ** (a fold increase between >1.2 and ≤1.35 is indicated by two stars (**)) | 158 to 160 °C
12 | CCN1CC=C(c2ccc3nc(-c4ccc5nc(C)sc5c4)cc(=O)n3c2)CC1 [Compound 396, 7-(1-ethyl-1,2,3,6-tetrahydropyridin-4-yl)-2-(2-methyl-1,3-benzothiazol-6-yl)-4H-pyrido[1,2-a]pyrimidin-4-one] | 0.1 to 0.3 | *** (an EC1.5× between >0.3 μM and ≤1 μM is indicated by three stars (***)) | **** (a fold increase between >1.5 and ≤1.65 is indicated by four stars (****)) | 128 to 130 °C
13 | Cc1cn2nc(-c3cc(=O)n4cc(N5CCN(C)[C@H](C)C5)ccc4n3)cc2c(C)n1 [Compound 397, 7-[(3R)-3,4-dimethylpiperazin-1-yl]-2-(4,6-dimethylpyrazolo[1,5-a]pyrazin-2-yl)-4H-pyrido[1,2-a]pyrimidin-4-one] | < 0.1 | **** (an EC1.5x≤0.3 μM is indicated by four stars (****)) | ***** (a fold increase >1.65 is indicated by five stars (*****)) | 247 to 249 °C
14 | Cc1cn2nc(-c3cc(=O)n4cc(N5C[C@@H]6C[C@H]5CN6)ccc4n3)cc2c(C)n1 [Compound 399, 7-[(1S,4S)-2,5-diazabicyclo[2.2.1]hept-2-yl]-2-(4,6-dimethylpyrazolo[1,5-a]pyrazin-2-yl)-4H-pyrido[1,2-a]pyrimidin-4-one] | 0.3 to 1 | *** (an EC1.5× between >0.3 μM and ≤1 μM is indicated by three stars (***)) | **** (a fold increase between >1.5 and ≤1.65 is indicated by four stars (****)) | 218 to 221 °C
15 | Cc1cn2nc(-c3cc(=O)n4cc(N5C[C@@H]6C[C@H]5CN6C)ccc4n3)cc2c(C)n1 [Compound 400, 2-(4,6-dimethylpyrazolo[1,5-a]pyrazin-2-yl)-7-[(1S,4S)-5-methyl-2,5-diazabicyclo[2.2.1]hept-2-yl]-4H-pyrido[1,2-a]pyrimidin-4-one] | 0.1 to 0.3 | *** (an EC1.5× between >0.3 μM and ≤1 μM is indicated by three stars (***)) | **** (a fold increase between >1.5 and ≤1.65 is indicated by four stars (****)) | 188 to 191 °C
16 | CCN1C[C@@H]2C[C@H]1CN2c1ccc2nc(-c3cc4c(C)nc(C)cn4n3)cc(=O)n2c1 [Compound 401, 2-(4,6-dimethylpyrazolo[1,5-a]pyrazin-2-yl)-7-[(1S,4S)-5-ethyl-2,5-diazabicyclo[2.2.1]hept-2-yl]-4H-pyrido[1,2-a]pyrimidin-4-one] | 0.1 to 0.3 | *** (an EC1.5× between >0.3 μM and ≤1 μM is indicated by three stars (***)) | ***** (a fold increase >1.65 is indicated by five stars (*****)) | 175 to 177 °C
17 | COc1ccc(-c2cc(=O)n3cc(C4CCNCC4)ccc3n2)cc1F [Compound 403, 2-(3-fluoro-4-methoxyphenyl)-7-(piperidin-4-yl)-4H-pyrido[1,2-a]pyrimidin-4-one] | < 0.1 | ** (an EC1.5× between >1 μM and ≤3 μM is indicated by two stars (**)) | **** (a fold increase between >1.5 and ≤1.65 is indicated by four stars (****)) | 122 to 125 °C
18 | CCN1CCC(c2ccc3nc(-c4ccc(OC)c(OC)c4)cc(=O)n3c2)CC1 [Compound 404, 2-(3,4-dimethoxyphenyl)-7-(1-ethylpiperidin-4-yl)-4H-pyrido[1,2-a]pyrimidin-4-one] | 0.3 to 1 | ** (an EC1.5× between >1 μM and ≤3 μM is indicated by two stars (**)) | **** (a fold increase between >1.5 and ≤1.65 is indicated by four stars (****)) | 155 to 157 °C
